The source made the active and inactive calls.
Experiments:
[1] = biological target: fMet-Leu-Phe receptor (Homo sapiens, UniProt P21462); test: formyl peptide receptor binders – dose response (AID 519); type: functional
[2] = biological target: Protein Tat (Human immunodeficiency virus type 1 group M subtype B (isolate HXB2)(HIV-1), UniProt P04608); type: functional;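 note: tat binding to TAR RNA read out by fluorescence polarization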
[3] = system: Streptococcus sp. 'group A'; test: Streptococcus pyogenes SK(-)GAS viability under kanamycin – luminescence, BacTiterGlo, confirmation, counter-screen for streptokinase expression inhibitor project, dose response (AID 1900); type: functional, organism-based
[4] = biological target: T1, Streptokinase A (Streptococcus pyogenes serotype M1, UniProt P10520); test: viability-normalized secreted streptokinase activity reduction – plasminogen activation absorbance, OD405, dose response (AID 1914); type: functional, Streptococcus pyogenes M1 GAS;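 note: secreted streptokinase activity via plasminogen activation per viability signal from cell pellet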
T1 sequence (P10520 whole entry): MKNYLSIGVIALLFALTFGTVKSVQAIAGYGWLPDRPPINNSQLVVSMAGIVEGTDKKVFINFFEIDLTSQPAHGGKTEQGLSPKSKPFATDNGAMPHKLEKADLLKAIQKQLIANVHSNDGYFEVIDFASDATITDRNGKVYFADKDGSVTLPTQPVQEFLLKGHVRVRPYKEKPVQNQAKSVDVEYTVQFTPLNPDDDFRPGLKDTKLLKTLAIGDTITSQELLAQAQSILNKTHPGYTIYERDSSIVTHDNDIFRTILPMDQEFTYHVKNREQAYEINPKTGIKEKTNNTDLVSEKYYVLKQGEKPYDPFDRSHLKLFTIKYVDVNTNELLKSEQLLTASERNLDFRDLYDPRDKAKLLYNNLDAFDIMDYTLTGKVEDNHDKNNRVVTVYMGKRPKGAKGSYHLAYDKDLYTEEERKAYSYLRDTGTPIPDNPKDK

[5] = system: Streptococcus; test: GAS UMAA2166 growth inhibition – luminescence, BacTiterGlo, counter-screen for streptokinase expression inhibitor project, dose response (AID 1915); type: functional, organism-based;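 note: potency for reduction of bacterial viability or growth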
[6] = biological target: T2, Fatty acid synthase (Homo sapiens, UniProt P49327); test: inhibition of human FAS-TE enzyme activity – biochemical, endpoint fluorescence intensity, uHTS hits, dose response (AID 624327); type: functional;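 note: fluorescence from hydrolysis of an O-methyl fluorescein acyl ester substrate by the enzyme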
[7] = biological target: T2, Fatty acid synthase; test: inhibition of human FAS-TE enzyme activity – biochemical, kinetic fluorescence intensity, dose response (AID 624326); type: functional;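 note: rate of fluorescence rise from hydrolysis of a fluorogenic O-methyl fluorescein ester substrate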
[8] = potency of ADAM10 substrate cleavage blockers – biochemical, QFRET, dose response (AID 743254);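 note: ADAM10 enzyme with the DM2 quenched FRET peptide as substrate; EDANS fluorescence gain as the protease cuts the substrate; inhibitor potency against ADAM10 proteolytic activity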
[9] = biological target: Disintegrin and metalloproteinase domain-containing protein 17 (Homo sapiens, UniProt P78536); test: inhibition of ADAM17 substrate cleavage – biochemical, quenched FRET substrate, counter-screen for ADAM10 exosite inhibitor project, dose response (AID 743253)
[10] = activation of miR-122 Renilla sensor silencing – cell-based, Huh7 psiCHECK-miR122, Renilla luciferase, cherry-picked, dose response (AID 651956); type: functional;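 note: huh7 hepatoma cells stably carrying a psiCHECK-2 miR-122 sensor plasmid; renilla luciferase signal reporting endogenous miR-122 activity after 48 h compound exposure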
[11] = biological target: Paired box protein Pax-8 (Homo sapiens, UniProt Q06710); test: PAX8 transcriptional activity inhibition in RMG-I – RMG-I cells, luciferase, cherry-pick, dose response (AID 687027); type: functional, cell-based;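 note: luciferase reporter driven by Pax8 target thyroperoxidase promoter measured by SteadyGlo luminescence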
[12] = OVCAR-3 cell viability loss – plate reader, dry powder samples, PAX8 inhibitor project, dose response (AID 743044); type: functional, cell-based
[13] = general mammalian cell viability loss – inhibitor set, cherry-pick, set 2, cytotoxicity control for miR-122 modulator project, dose response (AID 720697); type: functional, cell-based
[14] = general mammalian cell viability loss – activator set, cherry-pick, cytotoxicity control for miR-122 modulator project, dose response (AID 720690); type: functional, cell-based;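 note: HEK293T human cells scored for general mammalian cytotoxicity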
[15] = biological target: T3, Galanin receptor type 3 (Homo sapiens, UniProt O60755); test: Fluorescence-based cell-based primary high throughput dose response assay to identify antagonists of the Galanin Receptor 3 (GalR3).; type: functional
T3 sequence (O60755 whole entry): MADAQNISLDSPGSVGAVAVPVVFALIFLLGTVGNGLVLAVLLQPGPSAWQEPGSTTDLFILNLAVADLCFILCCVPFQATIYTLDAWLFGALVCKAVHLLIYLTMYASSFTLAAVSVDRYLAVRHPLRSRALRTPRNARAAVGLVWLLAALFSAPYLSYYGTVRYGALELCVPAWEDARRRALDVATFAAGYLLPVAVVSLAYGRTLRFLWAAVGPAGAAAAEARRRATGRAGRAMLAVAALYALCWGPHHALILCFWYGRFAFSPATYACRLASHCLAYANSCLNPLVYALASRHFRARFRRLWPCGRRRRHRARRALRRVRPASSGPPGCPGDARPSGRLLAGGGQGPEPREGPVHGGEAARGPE

[16] = cells; type: functional, cell-based; settings: HEK-CNG
[17] = blockers of HIV-1 ZM109 envelope-driven cell-cell fusion – HeLa effector, CEM target cells, luciferase, cherry-pick, dose response (AID 652058); type: functional, cell-based;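 note: luciferase signal from HIV-1 Env mediated cell-cell fusion of effector and target cells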
[18] = off-target signal loss in HeLa-CEM21 co-culture – HeLa F-luc CTL cells, cherry-picked, counter-screen for HIV-1 Env fusion inhibitor project, dose response (AID 652040); type: functional, cell-based;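 note: potency for signal decrease marking cytotoxic or nonspecific inhibition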
[19] = HIV-1 AD8 envelope cell-cell fusion blockers – cherry-pick, dose response (AID 652062); type: functional, cell-based;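 note: luciferase signal from cell-cell fusion driven by HIV-1 clade B AD8 Env; potency is for inhibitors of fusion seen as a drop in luminescence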
[20] = biological target: COUP transcription factor 2 (Homo sapiens, UniProt P24468); test: Luminescence-based cell-based high throughput dose response assay to identify inhibitors of COUP-TFII (NR2F2).; type: functional;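 note: HEK293 cells transiently cotransfected with COUP-TFII expression vector and reporter; luciferase reporter luminescence driven by COUP-TFII from the pX2-168 reporter plasmid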
[21] = toxicity toward immortalized ovarian surface epithelium – cell-based, plate reader, dry powder samples, cytotoxicity control for PAX8 inhibitor project, dose response (AID 743045); type: functional
[22] = A2780 cell killing – plate reader, dry powder samples, cytotoxicity control, dose response (AID 743046); type: functional, cell-based
[23] = A549 cell cytotoxicity, dose response, cytotoxicity control, plate reader, cherry-pick, antagonist series (AID 743412); type: functional, cell-based
[24] = toxicity toward HepG2 liver cells – cell-based, plate reader, cherry-pick, antagonist series, cytotoxicity control, dose response (AID 743416); type: functional
[25] = IGROV1 cell killing – plate reader, dry powder samples, PAX8 inhibitor project, dose response (AID 743043); type: functional, cell-based; settings: IGROV-1
[26] = blockers of bursicon-stimulated LGR2 cAMP reporter – cell-based, HEK293, CRE-luciferase reporter, cherry pick, set 2, dose response (AID 743343); type: functional;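 note: transfected cells were stimulated with diluted bursicon conditioned medium after compound addition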
[27] = blockade of melanocortin 4 receptor signaling – cell-based, plate reader, cherry pick, counter-screen for LGR2 antagonist project, dose response (AID 743444); type: functional;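 note: transfected HEK 293 cells stimulated with alpha-MSH peptide; potency of inhibitors of the alpha-MSH evoked signal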
[28] = OVCAR8 cell viability loss – plate reader, dry powder samples, PAX8 project, dose response (AID 743197); type: functional, cell-based; settings: OVCAR-8
[29] = viability loss in HEK293 cells – cell-based, plate reader, cherry-picked samples, cytotoxicity control, dose response (AID 743446); type: functional
[30] = growth inhibition of yeast DHODH-expressing 3D7 parasites – SYBR Green, dry powder samples, dose response (AID 1159570); type: functional, cell-based;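 note: parasite growth measured after 72 hours of compound exposure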
[31] = toxicity to human HepG2 hepatoma cells – cell-based, plate reader, dry powder samples, cytotoxicity control, dose response (AID 1159569); type: functional;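 note: inhibitor potency with signal falling toward the positive control level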
[32] = P. falciparum Dd2 growth inhibitors, dose response, SYBR Green, cherry-picked samples (AID 1159567); type: functional, cell-based
[33] = Dd2 malaria parasite growth inhibition potency – SYBR Green, dry powder samples, dose response (AID 1159566); type: functional, cell-based;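 note: potency for growth inhibition with lower SYBR green DNA signal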
[34] = growth inhibition of PfATP4-mutant resistant parasites – NITD609-resistant line, SYBR Green, dry powder, dose response (AID 1159571); type: functional, cell-based;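 note: parasites synchronized at ring stage by sorbitol before testing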
[35] = toxicity to human hepatoma HepG2 cells – cell-based, cherry-picked samples, cytotoxicity control, dose response (AID 1159577); type: functional

T2 sequence (P49327 whole entry): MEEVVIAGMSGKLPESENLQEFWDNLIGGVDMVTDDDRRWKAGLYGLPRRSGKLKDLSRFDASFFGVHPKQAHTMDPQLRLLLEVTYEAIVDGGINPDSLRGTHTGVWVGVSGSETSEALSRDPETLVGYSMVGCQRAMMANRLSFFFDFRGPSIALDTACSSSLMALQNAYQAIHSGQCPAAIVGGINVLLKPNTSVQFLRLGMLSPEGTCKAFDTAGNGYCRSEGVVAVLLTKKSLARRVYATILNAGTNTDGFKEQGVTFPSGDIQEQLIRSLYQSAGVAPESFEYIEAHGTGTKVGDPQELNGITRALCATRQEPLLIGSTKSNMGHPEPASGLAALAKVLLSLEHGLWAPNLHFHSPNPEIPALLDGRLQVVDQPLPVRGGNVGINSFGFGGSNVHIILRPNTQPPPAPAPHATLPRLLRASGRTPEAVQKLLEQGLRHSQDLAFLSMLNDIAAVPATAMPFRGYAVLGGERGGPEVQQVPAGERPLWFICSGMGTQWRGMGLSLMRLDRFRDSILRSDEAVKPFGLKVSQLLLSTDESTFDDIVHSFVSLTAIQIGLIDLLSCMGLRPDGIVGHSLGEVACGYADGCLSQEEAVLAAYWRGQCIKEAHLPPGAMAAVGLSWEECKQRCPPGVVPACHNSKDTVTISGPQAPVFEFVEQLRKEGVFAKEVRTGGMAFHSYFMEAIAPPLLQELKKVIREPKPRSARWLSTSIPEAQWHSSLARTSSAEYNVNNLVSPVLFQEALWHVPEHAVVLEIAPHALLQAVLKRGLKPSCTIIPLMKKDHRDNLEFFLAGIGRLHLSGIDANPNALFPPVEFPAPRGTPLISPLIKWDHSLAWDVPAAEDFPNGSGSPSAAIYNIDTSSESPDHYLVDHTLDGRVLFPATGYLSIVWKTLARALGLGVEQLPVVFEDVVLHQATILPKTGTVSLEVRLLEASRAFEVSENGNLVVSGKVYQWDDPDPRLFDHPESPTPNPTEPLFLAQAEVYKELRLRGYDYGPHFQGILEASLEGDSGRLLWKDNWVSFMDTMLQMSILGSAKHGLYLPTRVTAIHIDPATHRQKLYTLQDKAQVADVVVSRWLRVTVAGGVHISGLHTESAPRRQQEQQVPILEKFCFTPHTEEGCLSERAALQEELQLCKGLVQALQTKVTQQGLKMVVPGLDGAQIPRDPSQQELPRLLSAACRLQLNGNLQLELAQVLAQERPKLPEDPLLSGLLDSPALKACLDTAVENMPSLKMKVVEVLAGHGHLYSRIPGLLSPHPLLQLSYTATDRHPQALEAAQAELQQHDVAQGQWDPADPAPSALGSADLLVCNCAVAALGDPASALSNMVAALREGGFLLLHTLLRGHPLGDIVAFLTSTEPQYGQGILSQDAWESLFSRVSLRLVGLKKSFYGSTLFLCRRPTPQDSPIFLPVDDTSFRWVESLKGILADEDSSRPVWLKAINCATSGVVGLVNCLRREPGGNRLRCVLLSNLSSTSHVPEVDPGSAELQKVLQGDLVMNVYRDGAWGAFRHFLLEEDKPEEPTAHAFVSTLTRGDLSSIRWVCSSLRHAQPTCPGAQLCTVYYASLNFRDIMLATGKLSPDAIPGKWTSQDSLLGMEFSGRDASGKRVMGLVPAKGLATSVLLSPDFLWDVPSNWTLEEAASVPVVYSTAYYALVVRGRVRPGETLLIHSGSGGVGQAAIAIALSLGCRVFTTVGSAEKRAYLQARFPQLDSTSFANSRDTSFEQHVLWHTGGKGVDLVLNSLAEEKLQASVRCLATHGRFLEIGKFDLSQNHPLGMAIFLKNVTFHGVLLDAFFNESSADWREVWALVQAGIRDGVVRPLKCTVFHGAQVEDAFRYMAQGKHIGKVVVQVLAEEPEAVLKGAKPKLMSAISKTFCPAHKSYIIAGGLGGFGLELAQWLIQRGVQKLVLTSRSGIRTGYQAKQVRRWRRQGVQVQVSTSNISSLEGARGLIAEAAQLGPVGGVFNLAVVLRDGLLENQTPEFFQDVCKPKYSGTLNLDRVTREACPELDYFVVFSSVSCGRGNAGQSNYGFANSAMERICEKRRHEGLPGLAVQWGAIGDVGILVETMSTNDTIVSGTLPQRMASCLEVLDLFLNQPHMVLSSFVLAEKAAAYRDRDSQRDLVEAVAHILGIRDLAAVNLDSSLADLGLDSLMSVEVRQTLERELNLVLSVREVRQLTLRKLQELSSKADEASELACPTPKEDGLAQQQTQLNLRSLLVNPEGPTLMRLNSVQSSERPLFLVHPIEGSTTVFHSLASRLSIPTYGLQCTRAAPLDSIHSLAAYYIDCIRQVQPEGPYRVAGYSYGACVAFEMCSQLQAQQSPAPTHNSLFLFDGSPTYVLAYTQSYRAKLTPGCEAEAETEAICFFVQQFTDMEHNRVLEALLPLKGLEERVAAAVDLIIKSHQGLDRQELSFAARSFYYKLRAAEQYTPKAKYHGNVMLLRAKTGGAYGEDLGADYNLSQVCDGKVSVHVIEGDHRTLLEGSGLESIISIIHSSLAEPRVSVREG
fMet-Leu-Phe receptor, sequence (P21462 whole entry): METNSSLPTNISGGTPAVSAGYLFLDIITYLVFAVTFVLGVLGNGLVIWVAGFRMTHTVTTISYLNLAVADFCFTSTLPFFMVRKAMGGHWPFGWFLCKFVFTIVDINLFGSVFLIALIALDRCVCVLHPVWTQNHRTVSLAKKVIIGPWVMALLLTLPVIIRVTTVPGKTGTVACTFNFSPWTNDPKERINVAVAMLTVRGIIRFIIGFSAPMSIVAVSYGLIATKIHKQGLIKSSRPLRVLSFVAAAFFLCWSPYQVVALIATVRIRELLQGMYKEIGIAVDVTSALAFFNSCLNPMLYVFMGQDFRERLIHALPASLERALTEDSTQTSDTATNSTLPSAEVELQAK
Paired box protein Pax-8, sequence (Q06710 whole entry): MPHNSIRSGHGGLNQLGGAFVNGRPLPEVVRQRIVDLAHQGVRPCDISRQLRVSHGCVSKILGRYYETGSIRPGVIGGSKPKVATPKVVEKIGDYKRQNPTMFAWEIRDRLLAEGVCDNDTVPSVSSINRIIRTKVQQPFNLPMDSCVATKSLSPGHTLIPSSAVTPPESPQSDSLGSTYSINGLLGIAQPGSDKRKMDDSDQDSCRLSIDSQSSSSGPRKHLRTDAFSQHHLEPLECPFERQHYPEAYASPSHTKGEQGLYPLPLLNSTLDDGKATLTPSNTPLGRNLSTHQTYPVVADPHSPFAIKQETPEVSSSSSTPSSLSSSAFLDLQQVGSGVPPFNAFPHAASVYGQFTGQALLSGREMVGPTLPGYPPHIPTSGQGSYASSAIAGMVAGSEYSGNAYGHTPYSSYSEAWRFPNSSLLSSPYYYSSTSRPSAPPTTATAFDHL
Protein Tat, sequence (P04608 whole entry): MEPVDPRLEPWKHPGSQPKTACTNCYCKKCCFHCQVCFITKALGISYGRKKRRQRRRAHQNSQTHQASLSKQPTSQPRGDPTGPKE
Disintegrin and metalloproteinase domain-containing protein 17, sequence (P78536 whole entry, the tested form may be a part): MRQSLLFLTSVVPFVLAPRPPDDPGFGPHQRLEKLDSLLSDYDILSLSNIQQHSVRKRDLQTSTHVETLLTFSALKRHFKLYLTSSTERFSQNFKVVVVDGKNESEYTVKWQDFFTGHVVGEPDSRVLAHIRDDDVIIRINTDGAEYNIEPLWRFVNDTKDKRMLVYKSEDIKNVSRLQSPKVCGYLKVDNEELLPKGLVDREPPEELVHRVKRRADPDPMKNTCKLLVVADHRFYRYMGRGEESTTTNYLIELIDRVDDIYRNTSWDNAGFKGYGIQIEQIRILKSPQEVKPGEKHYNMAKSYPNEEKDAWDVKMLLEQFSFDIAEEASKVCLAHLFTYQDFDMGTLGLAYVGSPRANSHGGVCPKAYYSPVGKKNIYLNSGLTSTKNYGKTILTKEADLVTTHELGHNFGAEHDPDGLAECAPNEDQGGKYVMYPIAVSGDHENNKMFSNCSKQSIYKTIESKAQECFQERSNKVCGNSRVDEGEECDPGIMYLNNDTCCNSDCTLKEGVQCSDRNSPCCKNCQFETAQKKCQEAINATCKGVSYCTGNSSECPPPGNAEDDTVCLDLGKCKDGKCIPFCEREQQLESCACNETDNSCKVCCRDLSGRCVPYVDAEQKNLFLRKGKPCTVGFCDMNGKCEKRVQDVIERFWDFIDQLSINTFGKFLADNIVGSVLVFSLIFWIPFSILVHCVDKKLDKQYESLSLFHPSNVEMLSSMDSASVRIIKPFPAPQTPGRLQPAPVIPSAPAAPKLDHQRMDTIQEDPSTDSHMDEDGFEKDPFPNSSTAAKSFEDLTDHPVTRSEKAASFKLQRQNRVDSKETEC
COUP transcription factor 2, sequence (P24468 whole entry): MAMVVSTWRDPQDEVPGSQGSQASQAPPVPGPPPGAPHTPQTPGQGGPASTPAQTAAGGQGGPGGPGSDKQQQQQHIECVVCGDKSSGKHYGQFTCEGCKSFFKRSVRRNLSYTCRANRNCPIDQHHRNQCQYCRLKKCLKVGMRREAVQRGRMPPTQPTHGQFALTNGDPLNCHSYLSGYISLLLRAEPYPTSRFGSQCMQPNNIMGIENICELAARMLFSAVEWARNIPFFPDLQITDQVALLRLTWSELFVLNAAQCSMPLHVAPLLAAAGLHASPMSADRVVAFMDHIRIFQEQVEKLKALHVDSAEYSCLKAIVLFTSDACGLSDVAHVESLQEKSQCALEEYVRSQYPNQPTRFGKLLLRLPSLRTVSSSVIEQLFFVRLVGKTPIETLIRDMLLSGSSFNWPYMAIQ

Question: Which Ki [1] does the source give for `O=C(C1=C(O)C(=O)N(Cc2ccccc2)C1c1ccncc1)c1ccco1` (stereo not given) here?
Answer: Its Ki is 13.6 µM (active).

Question: With `CC(=O)Oc1cccc(N2C(=O)CC(Nc3ccc(N4CCOCC4)cc3)C2=O)c1` (stereo not given) as the compound, how does the IC50 [2] read?
Answer: The IC50 was 10.5 µM (inconclusive).

Question: What does the source list for `Cc1ccc(NC(=O)c2[nH]cnc2C(=O)N[C@@H](CCCCNC(=O)OC(C)(C)C)C(=O)OC(C)(C)C)cc1`?
Answer: EC50 [3]: 5.58 µM (active); EC50 [4]: > 150 µM (not active); EC50 [5]: 7.99 µM (active); IC50 [6]: 2.47 µM (active); IC50 [7]: 1.09 µM (active); IC50 [8]: > 7.72 µM (active); IC50 [9]: > 69.5 µM (inactive)

Question: With `COc1ccc(CN(C)C[C@@H]2OCCCC[C@H](C)Oc3ccc(NC(=O)Nc4ccc(C(F)(F)F)cc4)cc3C(=O)N([C@H](C)CO)C[C@@H]2C)cc1` as the compound, how does the AC50 [10] read?
Answer: Its AC50 is 17.5 µM (active).

Question: And the AC50 [11]?
Answer: The AC50 was 20.1 µM (active).

Question: What about the AC50 [12] of the same compound?
Answer: The AC50 was 44.6 µM (active).

Question: And the AC50 [13]?
Answer: Its AC50 is 12 µM (active).

Question: What about the AC50 [14] of the same compound?
Answer: The AC50 was 14.5 µM (active).

Question: Which results are given for `O=C(Nc1ccc(Oc2ccccc2)cc1)c1csc([C@H]2C[C@H](O)[C@@H](CO)O2)n1`?
Answer: IC50 [15]: 0.4 µM (active); EC50 [16]: > 29.9 µM (inactive); AC50 [17]: 27.4 µM (active); AC50 [18]: > 70 µM (inactive); AC50 [19]: 5.85 µM (active); IC50 [20]: 5.35 µM (active)

Question: For `O=C(C1CC1)N1C[C@@H]2N[C@H](C1)[C@@H]2c1ccc(-c2ccncc2)cc1`, which AC50 [11] is on record?
Answer: The AC50 was 2.98 µM (active).

Question: And the AC50 [21]?
Answer: The AC50 was 12.2 µM (active).

Question: What about the AC50 [22] of the same compound?
Answer: Its AC50 is 12.7 µM (active).

Question: And the AC50 [12]?
Answer: The AC50 was 13.2 µM (active).

Question: What about the AC50 [23] of the same compound?
Answer: The AC50 was 2.89 µM (active).

Question: What about the AC50 [24] of the same compound?
Answer: The AC50 was 21.4 µM (active).

Question: What about the AC50 [25] of the same compound?
Answer: The AC50 was 13.1 µM (active).

Question: What about the AC50 [26] of the same compound?
Answer: Its AC50 is 5.41 µM (active).

Question: What about the AC50 [27] of the same compound?
Answer: Its AC50 is 4.85 µM (active).

Question: And the AC50 [28]?
Answer: The AC50 was 12.1 µM (active).

Question: And the AC50 [29]?
Answer: The AC50 was 24.5 µM (active).

Question: And the AC50 [30]?
Answer: Its AC50 is 0.629 µM (active).

Question: What about the AC50 [31] of the same compound?
Answer: The AC50 was > 100 µM (inactive).

Question: What about the AC50 [32] of the same compound?
Answer: The AC50 was 0.965 µM (active).

Question: And the AC50 [33]?
Answer: Its AC50 is 0.555 µM (active).

Question: And the AC50 [34]?
Answer: Its AC50 is 0.974 µM (active).

Question: For `O=C(NCC1CCCO1)c1ccc(NC(=O)C2CCCCC2C(=O)O)cc1` (stereo not given), which Ki [1] is on record?
Answer: Its Ki is > 66.7 µM (inactive).

Question: For `OC[C@H]1[C@@H](c2ccc(-c3cccc(F)c3)cc2)[C@@H]2CN(CCC(F)(F)F)CCCCN12`, which AC50 [30] is on record?
Answer: Its AC50 is 1.12 µM (active).

Question: What about the AC50 [31] of the same compound?
Answer: Its AC50 is 12.8 µM (active).

Question: What about the AC50 [32] of the same compound?
Answer: The AC50 was 1.84 µM (active).

Question: What about the AC50 [33] of the same compound?
Answer: The AC50 was 0.618 µM (active).

Question: What about the AC50 [35] of the same compound?
Answer: The AC50 was 28.5 µM (active).

Question: What about the AC50 [34] of the same compound?
Answer: Its AC50 is 0.832 µM (active).

Question: For `C[C@@H]1CN([C@@H](C)CO)C(=O)Cc2cc(NC(=O)Nc3ccc(F)cc3)ccc2O[C@H]1CN(C)Cc1ccc(Oc2ccccc2)cc1`, which AC50 [32] is on record?
Answer: Its AC50 is 1.5 µM (active).

Question: And the AC50 [35]?
Answer: Its AC50 is 15.1 µM (active).

Source: ChEMBL document CHEMBL1201862, “PubChem BioAssay data set” (2004)
